Patent US20110288136A1, “FLAVIVIRUS INHIBITION BY SULTAMS AND RELATED COMPOUNDS” (Oregon Health & Science University, priority 2006, published 2011)
Several values for one entry are separate records, joined by “and”; a condition that tells them apart may be missing. Identical values can stand only once.

Tests used:
JEV = assay: virus yield reduction assay, JEV; assay type: cell-based; settings: Japanese encephalitis virus, Vero, read-out: JEV EC50
Method: (§1) This example describes an assay used to evaluate inhibitor antiviral activity. Inhibitor screening, virus yield reduction, and cytotoxicity assays all employed Vero cells and media containing 2% FCS. Compound libraries were assayed for WNV antiviral activity by screening for protection of infected Vero cells from WNV cytopathic effects (CPE). To do so, 10^4 Vero cells in 96 well plate wells were pretreated with a final concentration of 10 μg/mL drug in a total volume of 1 μL DMSO, infected with WNV at a multiplicity of infection (MOI) of 0.2, and screened for protection from CPE for 3-5 d post-infection (PI). Virus yield reduction assays were modified from previous protocols (Hirsch, A., Medigeshi, G., Meyers, H., DeFilippis, V., Fruh, K., Briese, T., Lipkin, W. I., and Nelson, J. (2005). The Src family kinase c-Yes is required for maturation of West Nile virus particles. J. Virol. 79, 11943-11951). Briefly, 10^4 Vero cells in 96 well plate wells were treated with compound dilutions in 1 μL DMSO, and infected with WNV at an MOI of 1-3. At 20-24 h PI, virus-containing media samples were titered by limiting dilution on fresh Vero cells. After 5 d, media were removed, and surviving cells were stained with 0.0375% crystal violet in ethanol. For cytotoxicity assays, 10^4 Vero cells per 96 well plate well were treated with compound dilutions, grown for 48 h, and subjected to colorimetric assays for dehydrogenase levels in metabolically active cells using MTS (3-[4,5-dimethylthiazol-2-yl)-5-[3-carboxymethyoxy phenyl]-2-[4-sulfophenyl]-2H-tetrazolium]; Promega) substrate. MTS cytotoxicity assay results were confirmed microscopically by scoring for Trypan Blue (0.2%) exclusion.
(§2) Several antiviral sultams were evaluated in using these methods. The results, including CC50 and EC50 values for WNV and JEV, were determined by MTS cytotoxicity assays and virus yield reduction assays and are recorded in Table 2.

[1] = MTS cytotoxicity assay (48 h); assay type: cell-based; settings: African green monkey; MTS, Vero cells, 48 h
Method: as §1, §2

WNV [2] = assay: virus yield reduction assay, WNV; assay type: cell-based, West Nile virus; settings: for EC50: West Nile virus, Vero, read-out: WNV EC50
Method: as §1, §2

WNV NY99 = assay: RT real-time PCR quantitation of WNV RNA; assay type: cell-based, West Nile virus; settings: 5 μg/ml, MOI 5, 18 h PI
Method: Cells were DMSO mock-treated or treated with 5 μg/ml TYT-1, and then mock-infected or infected with WNV NY99 at an MOI of 5. At 18 h PI, RNAs were isolated from cells and subjected to reverse transcription (RT) real-time PCR quantitation of WNV RNA following the protocol of Briese et al. (Briese, T., Glass, W., and Lipkin, W. I. (2000). Detection of West Nile virus sequences in cerebrospinal fluid. Lancet 355, 1614-1615). […] Thus, inhibition of WNV NY99 replication by TYT-1 is accompanied by a reduction in viral protein and viral RNA expression levels.

WNV E [3] = assay: WNV E protein expression by immunofluorescence; assay type: cell-based, West Nile virus; settings: 10 μg/mL, Vero cells, MOI 3, 24 h PI
Method: E protein expression was assayed by immunofluorescence and immunoblotting. Immunofluorescent and immunoblot detection of WNV E employed a commercially available anti-E monoclonal antibody (Chemicon Mab 8150). For immunofluorescence, Vero cells in DMEM, plus penicillin, streptomycin, and 2% FCS were mock-treated with DMSO, or treated with 10 μg/mL of inhibitor compound in DMSO, and infected with WNV at an MOI of 3. At 24 h PI, cells were processed for immunofluorescent detection of WNV E using a standard protocol at room temperature (Arvidson, B., Seeds, J., Webb, M., Finlay, L., and Barklis, E. (2003). Analysis of the retrovirus capsid interdomain linker region. Virology 308, 166-177). Briefly, washed cells were fixed 20 min in 3.7% formaldehyde in phosphate-buffered saline (PBS; 9.5 mM sodium potassium phosphate [pH 7.4], 137 mM NaCl, 2.7 mM KCl), washed, permeabilized 10 min in 0.2% Triton X-100 in PBS, washed, incubated 1 h with primary antibody diluted in DMEM plus 10% heat inactivated FCS (DMEM+FCS), washed, incubated 1 h with 1:1000 diluted Alexafluor594-conjugated goat anti-mouse secondary antibody (Molecular Probes; Invitrogen) in DMEM+FCS, washed, and mounted with PBS in 50% glycerol. Images were collected electronically on a Zeiss fluorescence microscope.
A handful of E protein-positive cells was observed over the faint background staining of the majority of cells.

Vero cells [4] = assay: MTS cytotoxicity assay (48 h); assay type: cell-based; settings: highest drug concentrations employed
Method: as §1, §2

[5] = test system: West Nile virus (WNV; strain NY99); assay: protection of mice from WNV lethality; assay type: in vivo, C57BL/6N mice; settings: 400 pfu WNV s.c.
Method: This example describes the protective effect exerted by examples of the disclosed compounds against challenge with flaviviruses. […] With reference to FIG. 2A, on day 0, two groups of five C57BL/6N mice each were injected subcutaneously with 400 plaque forming units (pfu) of West Nile virus (WNV; strain NY99). Four hours prior to virus infection, and at two and four days post-infection (PI), one set of mice was injected i.p. with 0.02 ml DMSO per mouse (mock), while the other set was injected with 10 mg/kg TYT-1 in 0.02 ml DMSO. Survival was tracked for 21 days PI, and results are plotted as overall percentage survival for each group, versus the number of days PI. […] With reference to FIG. 2B, two groups of C57BL/6N mice were infected on day 0 with WNV as described above. Prior to infection, the 15 mice in the mock group were injected subcutaneously with 0.025 ml of DMSO, while the 10 mice in the experimental group were injected with 10 mg/kg TYT-1 in DMSO. Mice subsequently were injected i.p. with DMSO or TYT-1 at days 2, 4, 6, 8; and survival was tracked as above. […] The combined results of these two trial yielded a survival rate of 6/20 for mock treated mice and 11/15 for TYT-1 treated mice.

WNV E [6] = assay: WNV E protein expression by immunoblot; assay type: cell-based, West Nile virus; settings: 5 μg/mL, Vero cells, MOI 5, 18 h PI
Method: For immunoblot detection of WNV E Vero cells on […] in 1 mL media were mock-treated with 5 μL DMSO or treated with 5 μL 1 mg/mL inhibitor compound in DMSO (final concentration 5 μg/mL inhibitor compound), and infected with WNV at an MOI of 5. At 18 h PI, media were removed, cells were collected in IPB (10 mM Tris-hydrochloride [pH 7.5], 150 mM NaCl, 1 mM ethylenediaminetetraacetic acid (EDTA), 0.1% sodium dodecyl sulfate [SDS], 0.5% sodium deoxycholate, 1% Triton X-100, 0.02% sodium azide), mixed with 1 volume of 2 x sample buffer (12.5 mM Tris-hydrochloride [pH 6.8], 2% SDS, 20% glycerol, 0.25% bromphenol blue) plus 0.1 volume of β-mercaptoethanol (β-Me). Samples were frozen at −20° C., heated 5 min to 90° C. and subjected to SDS-polyacrylamide gel electrophoresis (SDS-PAGE). After electrophoresis and electroblotting onto nitrocellulose filters, WNV E proteins were detected using a dilution of Mab 8150 as the primary antibody, an alkaline phosphatase-conjugated goat anti-mouse IgG secondary antibody (Promega), and a BCIP (5-bromo-4-chloro-3-indolyl phosphate) plus NBT (nitroblue tetrazolium)-mediated color reaction for visualization.
Immunoblotting was performed using a similar infection regime as in the immunofluorescence protocol. […] The WNV envelope protein was detected as a band at approximately 55 kDa in cells treated with DMSO, or with ineffective candidate inhibitors.

Vero cells [7] = assay: MTS toxicity screening assay (3 d); assay type: cell-based; settings: 10 μg/ml, subconfluent Vero cells
Text: TYT-1 was screened for toxicities using a colorimetric cell proliferation assay which employs MTS substrate to measure dehydrogenase activity in metabolically active cells (Barltrop, J. et al. (1991) 5-(3-carboxymethoxyphenyl)-2-(4,5-dimethylthiazoly)-3-(4-sulfophenyl)tetrazolium, inner salt (MTS) and related analogs of 3-(4,5-dimethyl thiazolyl)-2,5-diphenyltetrazolium bromide (mTT) reducing to purple water-soluble formazans as cell-viability indicators. Bioorg. & Med. Chem. Lett. 1, 611).
In this assay, subconfluent Vero cells were untreated, or treated 3 d with 10 μg/ml compound, and then subjected to MTS dehydrogenase assays, in which 490 nm absorbance values are proportional to cell viability signals. Results were plotted as the percentage of all treated compounds versus the percentage of the assay signal for untreated samples. Thus, nontoxic compounds give a signal approximately 100% that of the untreated signal.

WNV [8] = assay: protection of infected Vero cells from WNV cytopathic effects; assay type: cell-based, West Nile virus; settings: WNV 0.2 MOI
Method: as §1, with “For cytotoxicity assays, 10^4 Vero cells per 96 well plate well were treated with compound dilutions, grown for 48 h, and subjected to colorimetric assays for dehydrogenase levels in metabolically active cells using MTS (3-[4,5-dimethylthiazol-2-yl)-5-[3-carboxymethyoxy phenyl]-2-[4-sulfophenyl]-2H-tetrazolium]; Promega) substrate. MTS cytotoxicity assay results were confirmed microscopically by scoring for Trypan Blue (0.2%) exclusion.” left out

Compound | EC50 (JEV) | CC50 at 48 h [1] | EC50 (WNV [2]) | 50% cytotoxicity (Vero cells [4]) | also measured
O=S1(=O)CS/C(=N\C(=S)N(Cc2ccccc2)Cc2ccccc2)N1c1ccccc1 [TYT-4, (1,1-dioxido-2-phenyl-1,4,2-dithiazolidin-3-ylidene)-bis(phenylmethyl)-thiourea] | 65 µM | 65 µM | 22 µM |  | 
O=S1(=O)CS/C(=N\C(=S)N(c2ccccc2)c2ccccc2)N1c1ccccc1 [TYT-1, N′-(1,1-dioxido-2-phenyl-1,4,2-dithiazolidin-3-ylidene)-N,N-diphenylthiourea] | 7 µM | > 70 µM | 0.7 µM | not obtained | WNV RNAs per cell (WNV NY99): 27 copies per cell; cells expressing high levels of WNV E (immunofluorescence) (WNV E [3]): very few cells; reduction of viral titers (WNV [2]; 1 μg/ml): at least 100 fold; reduction of WNV titers (WNV [2]; repeated tests): 100- to 10,000 fold and 100-10,000 fold; animals succumbed at 21 days ([5]; 10 mg/kg i.p. 4 h before infection and days 2, 4 PI, FIG. 2A): two out of five; survival rate, combined results of two trials ([5]; 10 mg/kg, 21 days PI): 11/15; E protein signal (immunoblot) (WNV E [6]): essentially no E protein signal; MTS signal (Vero cells [7]): 136 % of untreated levels
CC(C)N(C(=S)/N=C1\SC(C)S(=O)(=O)N1C)C(C)C (stereo not shown) [TYT-2, (2,5-dimethyl-1,1-dioxido-1,4,2-dithiazolidin-3-ylidene)bis(1-methylethyl)thiourea] | 30 µM | 90 µM | 30 µM |  | 
interferon alpha |  |  |  |  | protection of cells from WNV challenge (WNV [8]; 1000 IU/ml): failed to protect cells
CC(C)N(C(=S)/N=C1\SCS(=O)(=O)N1Cc1ccccc1)C(C)C [TYT-3, [1,1-dioxido-2-(phenylmethyl)-1,4,2-dithiazolidin-3-ylidene]bis(1-methylethyl)-thiourea] | 8 µM | > 80 µM | 80 µM | not obtained | 
NC(=O)c1ncn([C@@H]2O[C@H](CO)[C@@H](O)[C@H]2O)n1 [ribavirin, reference compound] |  |  |  |  | protection of cells from WNV challenge (WNV [8]; <100 μM): failed to protect cells; reduction of WNV titers (WNV [2]; 100 μM): 10 fold
